This is an account of results in ChEMBL document CHEMBL1125385, “Novel inhibitors of prolyl 4-hydroxylase. 2. 5-Amide substituted pyridine-2-carboxylic acids” (J Med Chem, 1992).

The subject of this assay is Prolyl 4-hydroxylase (Gallus gallus). The assay is described as follows: Inhibition of Prolyl 4-hydroxylase activity in cultured embryonic chick tendon cells; NA=Not active.
For the compound `COc1ccccc1NC(=O)c1ccc(C(=O)O)nc1`, the IC50 entry is “Not Active”.
Regarding `O=C(Nc1ccccc1Cl)c1ccc(C(=O)O)nc1`, the IC50 entry is given as “Not Active”.
In the case of `CN(C)c1ccc(NC(=O)c2ccc(C(=O)O)nc2)cc1` it was “Not Active”; in that of `O=C(O)c1ccc(NC(=O)c2ccccc2F)cn1`, “Not Active”; in that of `Cc1ccc(NC(=O)c2ccc(C(=O)O)nc2)cc1`, “Not Active”.
In the case of `CN(C)c1ccc(C(=O)Nc2ccc(C(=O)O)nc2)cc1` it was “Not Active”.
`CCOc1ccc(C(=O)Nc2ccc(C(=O)O)nc2)cc1`: the IC50 result is recorded as “Not Active”.
Take `COc1ccc(NC(=O)c2ccc(C(=O)O)nc2)c(OC)c1`: the IC50 result was “Not Active”.
